Measured values published in US8748343B2, “Herbicide/safener combintions” (Bayer Cropscience AG, priority 1998, dated 2014).

What was measured:
[1] = system: maize; assay: Field trial, phytotoxicity to maize (post-emergence)
Protocol: (§1) The field experiments were carried out in plots of 8 to 10 m^2, and each experiment was carried out in 2 to 4 replications. After the crop plants had been sown, the test preparations were applied pre-emergence, or in the 2-6-leaf stage, using plot sprayers. The spray volume was 100-300 l water/ha; it was applied by means of flat-jet nozzles at a pressure of 2-3 bar. Evaluation was done by visual scoring. The effects on the crop plants or on the broad-leaved weeds/grass weeds were estimated in comparison with untreated control plots using a percentage scale (0-100%). After application, the plants were scored 3-4 times at intervals of approx. 14, 28, 42 days after application. The results represent averages over 2-4 replications. […] Anti-weed action should show efficacies of ≧60%. From sowing until the experiments were concluded, they were exposed to the natural weather conditions (precipitation, temperature, atmospheric humidity, insolation), as they are characteristic for the experimental sites.

[2] = system: Abutilon theophrastis; assay: Field trial, action on grass weeds/broad-leaved weeds (post-emergence); format: in vivo; conditions: 100 g a.i./ha
Protocol: as §1

[3] = system: Panicum minor; assay: as above; format: in vivo; conditions: 100 g a.i./ha
Protocol: as §1

[4] = system: Setaria faberi; assay: as above; format: in vivo; conditions: 100 g a.i./ha
Protocol: as §1

SMILES	Phytotoxicity to maize [%] 14 dat ([1]; maize, in vivo, 14 days)	Phytotoxicity to maize [%] 42 dat ([1]; maize, in vivo, 42 days)	Phytotoxicity [%] Abutilon theophrastis [2]	Phytotoxicity [%] Panicum minor [3]	Phytotoxicity [%] Setaria faberi [4]	Phytotoxicity to maize [%] 14 dat ([1]; field trial, 4-leaf stage (Table 11), 120 g a.i./ha, 14 days after treatment)	Phytotoxicity to maize [%] 42 dat ([1]; field trial, 4-leaf stage (Table 11), 120 g a.i./ha, 42 days after treatment)	Phytotoxicity to maize [%] 14 dat ([1]; field trial, 4-leaf stage, post-emergence, 100 g a.i./ha, 14 days after treatment)	Phytotoxicity to maize [%] 31 dat ([1]; field trial, 4-leaf stage, post-emergence, 100 g a.i./ha, 31 days after treatment)	Phytotoxicity to maize [%] 14 dat ([1]; field trial, mixture with sulfonylureas, post-emergence (Table 13), 120 g a.i./ha, 14 days after treatment)	Phytotoxicity to maize [%] 42 dat ([1]; field trial, mixture with sulfonylureas, post-emergence (Table 13), 120 g a.i./ha, 42 days after treatment)	Phytotoxicity [%] Maize ([1]; field trial, post-emergence (Table 12), 100 g a.i./ha)
COc1cc(OC)nc(NC(=O)NS(=O)(=O)c2cc(NC=O)ccc2C(=O)N(C)C)n1 [Herbicide 2, N,N-Dimethyl-2-[3-(4,6-dimethoxypyrimidin-2-yl)ureido-sulfonyl]-4-formylaminobenzamide]	13%	7%	–	–	–	–	–	–	–	–	–	–
CCOC(=O)C1=NOC(c2ccccc2)(c2ccccc2)C1 [Safener II-9, Ethyl 5,5-diphenyl-2-isoxazoline-3-carboxylate]	–	–	0%	0%	0%	0%	0%	0%	0%	0%	0%	0%
